Columns and labels:
Type in all cases: in vivo
Lamium amplexicaule = assay: Field trial with maize, herbicidal action; conditions: application 1-leaf stage, scoring 17 days after application
Procedure: (§1) Transgenic maize plants with a resistance to one or more herbicides (A) together with typical weed plants were grown in the open on 2×5 m plots under natural field conditions; alternatively, weed infestation occurred naturally when the maize plants were grown.
(§2) […] The damage to, and the development of, all aerial parts of the plants was recorded. Scoring was done on the basis of a percentage sale (100% action=all plants destroyed; 50% action=50% of the plants and green parts of the plants destroyed; 0% action=no recognizable effect=like control plot. The mean of the score values of in each case 4 plots was calculated.

Commelina benghalensis = assay: Field trial with maize, herbicidal action; conditions: application 3-leaf stage, scoring 42 days after application
Procedure: as §1
(§3) 2, 4, 6 and 8 weeks after the application, the herbicidal activity of the active substances or active substance mixtures was scored visually with reference to the treated plots in comparison to untreated control plots. The damage to, and the development of, all aerial parts of the plants was recorded. Scoring was done on the basis of a percentage sale (100% action=all plants destroyed; 50% action=50% of the plants and green parts of the plants destroyed; 0% action=no recognizable effect=like control plot. The mean of the score values of in each case 4 plots was calculated.

[1] = system: Mais LL (Liberty-Link-Mais, maize tolerant or resistant to glufosinate-ammonium); assay: Field trial, damage to transgenic maize (tolerance by crop plants)
Procedure: as §1
The damage to, and the development of, all aerial parts of the plants was recorded.
Abbreviations generally used in the tables: • g of a.s./ha=gram of active substance (100% active substance) per hectare • E^A=Total of the herbicidal effects of the individual applications • E^C Colby's expected value (cf. scoring in Table 1) • “Mais LL”=®Liberty-Link-Mais, maize which is tolerant or resistant to glufosinate-ammonium, […]

Avena fatua = assay: Field trial with maize, herbicidal action; conditions: application 2- to 4-leaf stage, scoring 28 days after application
Procedure: as §1, §3

Portulaca oleracea = assay: Field trial with maize, herbicidal action
Procedure: as §1, §2

Echinochloa crus-galli = assay: Field trial with maize, herbicidal action
Procedure: as §1, §2

Brachiaria plantaginea = assay: Field trial with maize, herbicidal action; conditions: 1500 g of a.s./ha; application 2-leaf stage; scoring 28 days after application
Procedure: as §1, §3

Sorghum halepense = assay: Field trial with maize, herbicidal action; conditions: application 4-leaf stage, scoring 28 days after application
Procedure: as §1, §3

Convolvulus arvensis = assay: Field trial with maize, herbicidal action; conditions: application 3- to 4-leaf stage, scoring 28 days after application
Procedure: as §1, §3

Euphorbia heterophylla = assay: Field trial with maize, herbicidal action; conditions: for Herbicidal action (%) against Euphorbia heterophylla: application 6-leaf stage, scoring 44 days after application; for Herbicidal action (%) against EPHHL: application 4-leaf stage, scoring 6 weeks after application
Procedure: as §1, §2

Sorghum bicolor = assay: Field trial with maize, herbicidal action; conditions: pre-emergence application, scoring 46 days after pre-emergence application
Procedure: as §1, §3

Digitaria sanguinalis = assay: Field trial with maize, herbicidal action; conditions: 300 g of a.s./ha; application 5-6-leaf stage; scoring 11 days after application
Procedure: as §1, §2

Panicum dichotomiflorum = assay: Field trial with maize, herbicidal action; conditions: 300 g of a.s./ha; application 5-6-leaf stage; scoring 11 days after application
Procedure: as §1, §2

Sinapis arvensis = assay: Field trial with maize, herbicidal action; conditions: 15 g of a.s./ha; application 4- to 5-leaf stage; scoring 28 days after application
Procedure: as §1, §3

Fagopyrum esculentum = assay: Field trial with maize, herbicidal action; conditions: application 3- to 4-leaf stage, scoring 24 days after application
Procedure: as §1, §2

Galium aparine = assay: Field trial with maize, herbicidal action; conditions: application 3- to 4-leaf stage, scoring 24 days after application
Procedure: as §1, §2

O=C(O)CNCP(=O)(O)O [(A2.1), N-(phosphonomethyl)glycine]
Herbicidal action (%) against Lamium amplexicaule (Lamium amplexicaule; 400 g of a.s./ha): 75% | Herbicidal action (%) against Lamium amplexicaule (Lamium amplexicaule; 600 g of a.s./ha): 90%

CCc1cnc(C2=NC(C)(C(C)C)C(=O)N2)c(C(=O)O)c1 (stereo not shown) [(A3.2), imazethapyr]
Herbicidal action (%) against Commelina benghalensis (Commelina benghalensis; 100 g of a.s./ha): 73% | Mais LL ([1]; in vivo): 0

CCNc1nc(Cl)nc(NC(C)(C)C#N)n1 [(B1.1), 2-(4-chloro-6-ethylamino-1,3,5-triazin-2-ylamino)-2-methylpropionitrile]
Herbicidal action (%) against Avena fatua (Avena fatua; 2242 g of a.s./ha): 35% | Herbicidal action (%) against Portulaca oleracea (Portulaca oleracea; 2242 g of a.s./ha, application 2- to 4-leaf stage, scoring 28 days after application): 45%

CCOCN(C(=O)CCl)c1c(C)cccc1CC [(B1.4), 2-chloro-N-(ethoxymethyl)-N-(2-ethyl-6-methylphenyl)acetamide]
Herbicidal action (%) against Echinochloa crus-galli (Echinochloa crus-galli; 375 g of a.s./ha, application 3- to 4-leaf stage, scoring 42 days after application): 10% | Herbicidal action (%) against Echinochloa crus-galli (Echinochloa crus-galli; 750 g of a.s./ha, application 3- to 4-leaf stage, scoring 42 days after application): 40% | Herbicidal action (%) against Echinochloa crus-galli (Echinochloa crus-galli; 1500 g of a.s./ha, application 3- to 4-leaf stage, scoring 42 days after application): 45%

CCc1cccc(C)c1N(C(=O)CCl)C(C)COC (stereo not shown) [(B1.5), 2-chloro-N-(2-ethyl-6-methylphenyl)-N-(2-methoxy-1-methylethyl)-acetamide]
Herbicidal action (%) against Brachiaria plantaginea (Brachiaria plantaginea): 70% | Herbicidal action (%) against Avena fatua (Avena fatua; 1680 g of a.s./ha): 40% | Herbicidal action (%) against Portulaca oleracea (Portulaca oleracea; 1680 g of a.s./ha, application 2- to 4-leaf stage, scoring 28 days after application): 35%

CCc1cccc(CC)c1N(COC)C(=O)CCl [(B1.6), 2-chloro-N-(2,6-diethylphenyl)-N-(methoxymethyl)acetamide]
Herbicidal action (%) against Commelina benghalensis (Commelina benghalensis; 1920 g of a.s./ha): 37% | Mais LL ([1]; 1920 g of a.s./ha, application 3-leaf stage, Table 11, head names no quantity): 0

O=C(Nc1nc(OC(F)F)cc(OC(F)F)n1)NS(=O)(=O)c1ccccc1C(=O)O [(B1.11), 2-[4,6-bis(difluoromethoxy)pyrimidin-2-ylcarbamoylsulfamoyl]benzoic acid]
Herbicidal action (%) against Sorghum halepense (Sorghum halepense; 10 g of a.s./ha): 62% | Herbicidal action (%) against Sorghum halepense (Sorghum halepense; 20 g of a.s./ha): 93%

COCC(C)N(C(=O)CCl)c1c(C)csc1C (stereo not shown) [(B1.12), 2-chloro-N-(2,4-dimethyl-3-thienyl)-N-(2-methoxy-1-methylethyl)acetamide]
Herbicidal action (%) against Convolvulus arvensis (Convolvulus arvensis; 900 g of a.s./ha): 30%

CC(C)N(C(=O)COc1nnc(C(F)(F)F)s1)c1ccc(F)cc1 [(B1.13), 4′-fluoro-N-isopropyl-2-(5-trifluoromethyl-1,3,4-thiadiazol-2-yloxy)acetanilide]
Herbicidal action (%) against Echinochloa crus-galli (Echinochloa crus-galli; 125 g of a.s./ha, application 3-leaf stage, scoring 28 days after application): 25% | Herbicidal action (%) against Echinochloa crus-galli (Echinochloa crus-galli; 250 g of a.s./ha, application 3-leaf stage, scoring 28 days after application): 30% | Herbicidal action (%) against Echinochloa crus-galli (Echinochloa crus-galli; 500 g of a.s./ha, application 3-leaf stage, scoring 28 days after application): 55%

CS(=O)(=O)c1ccc(C(=O)C2C(=O)CCCC2=O)c(Cl)c1 [(B1.14), 2-(2-chloro-4-mesylbenzoyl)cyclohexane-1,3-dione]
Damage to Mais LL in % ([1]; 200 g of a.s./ha, application 6-leaf stage): 0% | Damage to Mais LL in % ([1]; 300 g of a.s./ha, application 6-leaf stage): 0% | Damage to Mais LL in % ([1]; 400 g of a.s./ha, application 6-leaf stage): 0% | Herbicidal action (%) against Euphorbia heterophylla (Euphorbia heterophylla; 200 g of a.s./ha): 60% | Herbicidal action (%) against Euphorbia heterophylla (Euphorbia heterophylla; 300 g of a.s./ha): 68% | Herbicidal action (%) against Euphorbia heterophylla (Euphorbia heterophylla; 400 g of a.s./ha): 75%

CS(=O)(=O)c1ccc(C(=O)C2C(=O)CCCC2=O)c([N+](=O)[O-])c1 [(B1.16), 2-(4-mesyl-2-nitrobenzoyl)cyclohexane-1,3-dione]
Damage to Mais LL in % ([1]; 50 g of a.s./ha, application 4-leaf stage): 0% | Damage to Mais LL in % ([1]; 100 g of a.s./ha, application 4-leaf stage): 0% | Damage to Mais LL in % ([1]; 150 g of a.s./ha, application 4-leaf stage): 0% | Herbicidal action (%) against EPHHL (Euphorbia heterophylla; 50 g of a.s./ha): 60% | Herbicidal action (%) against EPHHL (Euphorbia heterophylla; 100 g of a.s./ha): 58% | Herbicidal action (%) against EPHHL (Euphorbia heterophylla; 150 g of a.s./ha): 70%

CCCCCCCCSC(=O)Oc1cc(Cl)nnc1-c1ccccc1 [(B2.2), 6-chloro-3-phenylpyridazin-4-yl S-octyl thiocarbonate]
Herbicidal action (%) against Convolvulus arvensis (Convolvulus arvensis; 900 g of a.s./ha): 40%

CS(=O)(=O)c1cc(C(F)(F)F)ccc1C(=O)c1cnoc1C1CC1 [(B2.5), (5-cyclopropyl-4-isoxazolyl)[2-(methylsulfonyl)-4-(trifluoromethyl)phenyl]-methasone]
Herbicidal action (%) against Sorghum bicolor (Sorghum bicolor; 25 g of a.s./ha): 20% | Herbicidal action (%) against Sorghum bicolor (Sorghum bicolor; 50 g of a.s./ha): 40% | Herbicidal action (%) against Sorghum bicolor (Sorghum bicolor; 100 g of a.s./ha): 75%

Cc1ccn2nc(S(=O)(=O)Nc3c(F)cccc3F)nc2n1 [(B2.8)]
Herbicidal action (%) against Echinochloa crus-galli (Echinochloa crus-galli; 50 g of a.s./ha, application 3-leaf stage, scoring 21 days after application): 40% | Herbicidal action (%) against Echinochloa crus-galli (Echinochloa crus-galli; 70 g of a.s./ha, application 3-leaf stage, scoring 21 days after application): 65%

N#Cc1cc(Br)c(O)c(Br)c1 [(B3.1), 3,5-dibromo-4-hydroxybenzonitrile]
Herbicidal action (%) against Avena fatua (Avena fatua; 360 g of a.s./ha): 10% | Herbicidal action (%) against Portulaca oleracea (Portulaca oleracea; 360 g of a.s./ha, application 2- to 4-leaf stage, scoring 28 days after application): 25% | Herbicidal action (%) against Portulaca oleracea (Portulaca oleracea; 360 g of a.s./ha, application 6-leaf stage, scoring 26 days after application): 25%

COc1c(Cl)ccc(Cl)c1C(=O)O [(B3.2), 3,6-dichloro-o-anisic acid]
Damage to Mais LL in % ([1]; in vivo): 0% | Herbicidal action (%) against Digitaria sanguinalis (Digitaria sanguinalis): 88% | Herbicidal action (%) against Panicum dichotomiflorum (Panicum dichotomiflorum): 0%

O=C(O)COc1ccc(Cl)cc1Cl [(B3.3), 2,4-dichlorophenoxyacetic acid]
Herbicidal action (%) against Convolvulus arvensis (Convolvulus arvensis; 500 g of a.s./ha): 20%

O=C(O)c1nc(Cl)ccc1Cl [(B3.4), 3,6-dichloro-2-pyridinecarboxylic acid]
Mais LL ([1]; 100 g of a.s./ha, application 3-leaf stage, Table 14, head names no quantity): 0 | Herbicidal action (%) against Echinochloa crus-galli (Echinochloa crus-galli; 100 g of a.s./ha, application 3-leaf stage, scoring 21 days after application): 15%

COc1nc(C)nc(NC(=O)NS(=O)(=O)c2ccsc2C(=O)O)n1 [(B3.6), 3-[[[[(4-methoxy-6-methyl-1,3,5-triazin-2-yl)amino]carbonyl]amino]sulfonyl]-2-thiophenecarboxylic acid]
Herbicidal action (%) against Sinapis arvensis (Sinapis arvensis): 73%

COc1nc(NC(=O)NS(=O)(=O)c2ccccc2C(F)(F)F)nc(C(F)(F)F)n1 [(B3.8), N-[[[4-methoxy-6-(trifluoromethyl)-1,3,5-triazin-2-yl)amino]-carbonyl]-2-(trifluoromethyl)benzenesulfonamide]
Herbicidal action (%) against Fagopyrum esculentum (Fagopyrum esculentum; 15 g of a.s./ha): 30% | Herbicidal action (%) against Fagopyrum esculentum (Fagopyrum esculentum; 30 g of a.s./ha): 60% | Herbicidal action (%) against Fagopyrum esculentum (Fagopyrum esculentum; 60 g of a.s./ha): 78% | Herbicidal action (%) against Galium aparine (Galium aparine; 15 g of a.s./ha): 45% | Herbicidal action (%) against Galium aparine (Galium aparine; 30 g of a.s./ha): 65% | Herbicidal action (%) against Galium aparine (Galium aparine; 60 g of a.s./ha): 85%

Cc1cc(Cl)ccc1OCC(=O)O [(B3.9), (4-chloro-2-methylphenoxy)acetic acid]
Herbicidal action (%) against Convolvulus arvensis (Convolvulus arvensis; 500 g of a.s./ha): 60%
